In article PMC13385394, “Cryo-EM Structure of the TRPC1/5 Heteromer Enables Design of Antidepressant and Anxiolytic Drug with Reduced Side Effects” (Nature Communications, 2026):
“Also recorded” adds a separate entry of the source.

Experiments:
[1] = molecular target: T1, TRPC5 homomers (Homo sapiens, UniProt Q9UL62); assay: Whole-cell patch-clamp, agonist activation of TRPC5 homomers in HEK293T cells; assay type: cell-based
T1 construct: full length hTRPC5 (TRPC5 wild type (WT)); expressed in transfected cells; host or cells: HEK293T
T1 sequence (Q9UL62 1-973): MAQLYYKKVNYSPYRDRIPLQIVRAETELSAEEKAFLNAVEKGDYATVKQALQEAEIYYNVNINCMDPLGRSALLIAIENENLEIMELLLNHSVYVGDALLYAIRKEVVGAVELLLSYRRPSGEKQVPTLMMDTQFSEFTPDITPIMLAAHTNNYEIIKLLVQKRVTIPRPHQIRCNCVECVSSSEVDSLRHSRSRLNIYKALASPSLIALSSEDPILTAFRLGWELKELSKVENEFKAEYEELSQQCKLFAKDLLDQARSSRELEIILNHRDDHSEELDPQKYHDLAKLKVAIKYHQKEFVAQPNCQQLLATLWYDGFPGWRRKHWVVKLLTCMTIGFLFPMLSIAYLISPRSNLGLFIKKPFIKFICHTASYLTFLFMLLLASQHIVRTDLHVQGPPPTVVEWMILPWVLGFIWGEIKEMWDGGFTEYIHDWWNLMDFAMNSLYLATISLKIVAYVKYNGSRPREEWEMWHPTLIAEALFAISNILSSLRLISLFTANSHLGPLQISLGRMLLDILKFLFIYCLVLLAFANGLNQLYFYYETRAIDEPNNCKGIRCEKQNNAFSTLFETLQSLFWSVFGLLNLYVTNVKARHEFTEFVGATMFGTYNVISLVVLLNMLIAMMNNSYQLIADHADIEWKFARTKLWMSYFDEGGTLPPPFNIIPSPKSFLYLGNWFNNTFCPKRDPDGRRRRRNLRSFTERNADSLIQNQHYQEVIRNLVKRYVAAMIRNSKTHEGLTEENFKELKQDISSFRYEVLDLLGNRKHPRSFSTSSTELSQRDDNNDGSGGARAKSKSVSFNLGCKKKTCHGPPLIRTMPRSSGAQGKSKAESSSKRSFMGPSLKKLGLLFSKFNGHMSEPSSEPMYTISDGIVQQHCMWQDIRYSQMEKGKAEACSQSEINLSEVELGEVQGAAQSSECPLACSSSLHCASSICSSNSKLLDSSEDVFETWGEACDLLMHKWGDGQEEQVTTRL

[2] = molecular target: T2, TRPC1/5 heteromers (Homo sapiens, UniProt P48995+Q9UL62); assay: Whole-cell patch-clamp, agonist activation of TRPC1/5 (TRPC1 and TRPC5 co-transfected) in HEK293T cells; assay type: cell-based
T2 construct: wild type plasmids full-length hTRPC1 (WT) and full-length hTRPC5 (WT); expressed in transfected cells; host or cells: HEK293T
T2 sequence (P48995 whole entry, one chain of several): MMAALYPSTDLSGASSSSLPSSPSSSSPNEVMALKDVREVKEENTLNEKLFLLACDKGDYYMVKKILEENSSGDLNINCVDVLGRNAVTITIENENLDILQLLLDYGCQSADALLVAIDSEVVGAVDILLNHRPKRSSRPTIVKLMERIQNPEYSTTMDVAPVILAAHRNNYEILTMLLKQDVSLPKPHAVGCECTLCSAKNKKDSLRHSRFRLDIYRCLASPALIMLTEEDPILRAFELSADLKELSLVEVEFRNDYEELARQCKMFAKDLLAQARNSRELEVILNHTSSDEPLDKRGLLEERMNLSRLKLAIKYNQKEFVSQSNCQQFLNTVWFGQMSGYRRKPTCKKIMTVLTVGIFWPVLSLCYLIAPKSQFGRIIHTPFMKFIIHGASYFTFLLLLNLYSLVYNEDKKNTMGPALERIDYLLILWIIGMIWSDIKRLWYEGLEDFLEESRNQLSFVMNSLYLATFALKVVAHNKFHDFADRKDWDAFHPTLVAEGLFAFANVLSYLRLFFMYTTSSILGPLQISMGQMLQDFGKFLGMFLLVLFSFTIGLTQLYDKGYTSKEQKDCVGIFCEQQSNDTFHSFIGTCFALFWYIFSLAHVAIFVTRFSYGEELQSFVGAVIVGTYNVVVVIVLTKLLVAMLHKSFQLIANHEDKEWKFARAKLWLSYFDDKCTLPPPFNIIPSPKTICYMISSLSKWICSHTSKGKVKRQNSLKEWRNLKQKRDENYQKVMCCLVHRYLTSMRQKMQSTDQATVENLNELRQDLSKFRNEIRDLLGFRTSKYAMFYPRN
Description: (§1) The full-length hTRPC5 or truncated mTRPC5, and the full-length hTRPC1 constructs was respectively co-transfected in a plasmid ration 1:3 (w/w) into HEK293T cells (from the ATCC). As previously described, a mCherry was inserted into TRPC5 constructs and a GFP was inserted at the C terminus of TRPC1. Therefore, Cells with red and green fluorescence were selected for whole-cell patch recordings (HEKA EPC10 amplifier, […] software (https://www.heka.com/downloads/downloads_main.html#down_patchmaster)). A 1-s ramp protocol from −100 to +100 mV was applied at a frequency of 0.2 Hz. Signals were sampled at 50 kHz and filtered at 2.9 kHz. The pipette solution contained 130 mM CsCl, 1 mM MgCl2, 5.7 mM CaCl2, 10 mM EGTA, and 10 mM Hepes (calculated free Ca^2+, 200 nM), and the pH was titrated to 7.2 using CsOH[40]. The standard bath solution contained 140 mM NaCl, 5 mM KCl, 1 mM MgCl2, 2 mM CaCl2, 10 mM Hepes, and 10 mM D-glucose, and the pH was adjusted to 7.4 with NaOH (1 M). The recording chamber (150 μL) was perfused at a rate of ~2 mL/min. All recordings were performed at room temperature.

[3] = test system: mCPP-induced anxiety; assay: Open-field test (OFT), mCPP-induced anxiety model; details: mCPP-induced anxiety-like mice; single dose
[4] = test system: diet-induced obesity (DIO) mice; assay: Diet-induced obesity (DIO) model, body weight and food intake; assay type: in vivo, mouse; details: 11 days once daily, HC-070 and JD03-02 10 mg/kg i.g., Semaglutide 0.123 mg/kg s.c.
Description: A maximum of five mice were housed per cage during the acclimatization period, and three mice per cage during the experimental period. […] The day of administration was defined as day 1 (D1) of the experiment, with a single dose/day administered for 11 consecutive days. Daily observations were made on the animals’ general condition. Body weight was measured on days 1, 3, 5, 7, 9, and 11 post-administrations. Food intake was measured on days 1, 3, 5, 7, and 9 post-administrations by calculating the difference between the amount of food provided and the amount remaining in the cage, divided by the number of animals in the cage to determine the average food intake per mouse. The cumulative food intake during the experiment was calculated by summing the food intake measurements taken on different days.

[5] = test system: healthy C57BL/6J mice; details: mouse, in vivo
Description: The Open-Field test (OFT) was utilized to evaluate the autonomous behavior, exploratory tendencies, and anxiety levels of experimental animals in a new environment. Each mouse was placed at the center of the container and given a 10-min exploration period. Before the test, the animals were acclimated to the experimental setting for 60 min. […] This cleaning procedure aimed to reduce the risk of contamination and prevent any misleading experimental results due to olfactory stimuli. Anxiety levels and exploratory behavior were assessed by measuring the time spent in the central area, the number of entries into the central area, and the total distance traveled by the mice.

[6] = test system: CUMS-induced depressive-like behaviors; assay: Sucrose preference test (SPT) in CUMS model; assay type: in vivo, mouse; details: CUMS mice
Description: (§2) The stressors included food and water deprivation, foot shock, wet bedding, cage tilting, restraint, shaking, and olfactory stimulation. These seven stressors were randomly applied each week to ensure unpredictability. The stress induction was maintained continuously for 28 days. Following model establishment, the tail suspension test (TST) was performed to confirm the successful induction of depressive-like behaviors. Mice that met the criteria were randomly assigned to experimental groups.
Acute Treatment: A single dose of the test compound was administered, followed by the sucrose preference test (SPT).
Chronic Treatment: Mice were treated daily for 14 consecutive days. The SPT was conducted on day 11, and the forced swimming test (FST) was performed on day 14.
Mice were acclimated to 1% sucrose solution and plain water for 2 days. On the second day, the positions of the sucrose solution and water were swapped to eliminate positional bias. […] Mice were provided with pre-weighed 1% sucrose solution and plain water. […] Sucrose preference (%) was calculated as Sucrose Preference = A/(A + B)×100.

[7] = test system: CUMS-induced depressive-like behaviors; assay: Forced swim test (FST) in CUMS model; assay type: in vivo, mouse; details: CUMS mice; 14 days once-daily oral; vs vehicle
Description: as §2, with “groups. Chronic Treatment: Mice were treated daily for 14 consecutive days. The SPT was conducted on day 11, and the forced swimming test (FST) was performed on day 14.” for “groups.”

[8] = molecular target: T1, TRPC5 homomers; assay: Whole-cell patch-clamp, inhibition of EA-activated TRPC5 homomers; assay type: cell-based; details: whole-cell patch-clamp
[9] = molecular target: T2, TRPC1/5 heteromers; assay: Whole-cell patch-clamp, inhibition of EA-activated TRPC1/5 heteromers; assay type: cell-based; details: whole-cell patch-clamp; read-out: IC50, TRPC1/C5
Description: as §1

[10] = molecular target: T3, hTRPC5 (Homo sapiens, UniProt Q9UL62); assay: Calcium flux assay (Calcium 5 kit, EA 100 nM), hTRPC5 in HEK293T cells; assay type: cell-based; details: calcium flux screening, 10 μM
T3 construct: Full-length, non-tagged hTRPC1 and hTRPC5 constructs are used for calcium flux assays; expressed in transfected cells; host or cells: HEK293T
T3 sequence (Q9UL62 1-973): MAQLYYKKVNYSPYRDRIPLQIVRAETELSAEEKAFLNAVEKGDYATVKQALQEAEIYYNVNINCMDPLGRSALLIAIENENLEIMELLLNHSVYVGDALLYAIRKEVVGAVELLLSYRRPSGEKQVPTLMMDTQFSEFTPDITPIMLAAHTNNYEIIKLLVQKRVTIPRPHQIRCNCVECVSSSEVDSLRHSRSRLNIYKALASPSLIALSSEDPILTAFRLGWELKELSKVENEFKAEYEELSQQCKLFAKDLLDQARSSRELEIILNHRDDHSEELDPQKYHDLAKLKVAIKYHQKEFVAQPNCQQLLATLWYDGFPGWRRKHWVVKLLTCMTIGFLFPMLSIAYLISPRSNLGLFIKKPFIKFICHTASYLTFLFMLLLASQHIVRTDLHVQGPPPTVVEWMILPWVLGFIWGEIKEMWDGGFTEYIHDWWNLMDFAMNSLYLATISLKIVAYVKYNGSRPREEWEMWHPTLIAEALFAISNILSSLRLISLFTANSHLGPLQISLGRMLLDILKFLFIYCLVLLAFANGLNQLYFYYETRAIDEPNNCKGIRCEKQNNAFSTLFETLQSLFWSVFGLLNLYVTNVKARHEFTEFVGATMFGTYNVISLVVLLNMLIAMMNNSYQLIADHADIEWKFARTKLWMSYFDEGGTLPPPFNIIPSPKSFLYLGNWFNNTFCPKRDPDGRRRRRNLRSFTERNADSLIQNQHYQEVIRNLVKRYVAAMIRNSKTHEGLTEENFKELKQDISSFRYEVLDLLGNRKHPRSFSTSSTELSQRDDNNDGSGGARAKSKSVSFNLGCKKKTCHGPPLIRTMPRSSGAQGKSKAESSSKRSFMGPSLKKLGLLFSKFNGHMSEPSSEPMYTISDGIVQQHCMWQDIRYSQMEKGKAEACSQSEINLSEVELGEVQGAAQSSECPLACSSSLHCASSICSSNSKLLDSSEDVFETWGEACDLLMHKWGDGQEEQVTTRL
Description: Five minutes before measurement, molecules are added to each well at a final concentration of 10 µM under light-sensitive conditions.

[11] = molecular target: T4, TRPC1/5 (Homo sapiens, UniProt P48995+Q9UL62); assay: Calcium flux assay (Calcium 5 kit, EA 100 nM), hTRPC1 + hTRPC5 in HEK293T cells; assay type: cell-based; details: calcium flux screening, 10 μM
T4 construct: Full-length, non-tagged hTRPC1 and hTRPC5 constructs are used for calcium flux assays; expressed in transfected cells; host or cells: HEK293T
T4 sequence (P48995 whole entry, one chain of several): as the sequence (P48995 whole entry, one chain of several) above
Description: Full-length, non-tagged hTRPC1 and hTRPC5 constructs are used for calcium flux assays. hTRPC5 is transfected alone or co-transfected with hTRPC1 into HEK293T cells (70–80% confluency) using PEI as the transfection reagent.
The culture medium is removed, and 100 µL of loading buffer (Calcium 5 Assay Kit) is added to each well, followed by a 1-h incubation at 37 °C in 5% CO2. Five minutes before measurement, molecules are added to each well at a final concentration of 10 µM under light-sensitive conditions.

[12] = molecular target: the molecule itself; assay: cryo-EM structure; TRPC1/5 heteromer co-expressed, purified in tandem on Strep-Tactin and anti-Flag M2 resin and Superose 6 (25 mM Hepes pH 7.5, 150 mM NaCl, 1 mM DTT, LMNG/CHS/GDN); single-particle cryo-EM, 2.84 Å overall

## Cn1c(=O)n(CCCO)c(=O)c2c1nc(Oc1ccc(Cl)c(OC(F)(F)F)c1)n2Cc1ccc(Cl)cc1 [AM237]
[1]
  activation of TRPC5 homomers (in words): activates TRPC5 homomers
[2]
  activation of TRPC1/5 heteromers (in words): not TRPC1/5 heteromers

## CN1C(=O)CN=C(c2ccccc2)c2cc(Cl)ccc21 [diazepam, reference compound]
[3]
  OFT total distance traveled: no significant effect

## Cn1c(=O)n(CCCO)c(=O)c2c1nc(Oc1cccc(Cl)c1)n2Cc1ccc(Cl)cc1 [HC-070]
[4]
  body weight: significantly increased body weight
  food intake: elevated food intake
[5]
  OFT total distance traveled: increased total distance traveled

## Semaglutide [reference compound]
[4]
  body weight: effectively reduced both weight and appetite
  food intake: effectively reduced both weight and appetite

## CNCCC(Oc1ccc(C(F)(F)F)cc1)c1ccccc1 (centres unmarked) [fluoxetine, reference compound]
[6]; 11 days once-daily oral, vs vehicle
  sucrose intake (SPT), repeated dosing: significantly improved sucrose intake
[6]; single oral dose, JD03-02 30 mg/kg
  sucrose preference (SPT), single dose: no immediate effect; also recorded: ineffective
[7]
  immobility (FST), repeated dosing: reduced immobility

## CN(C)CCCCCCn1c(=O)c2c(nc(Oc3cccc(Cl)c3)n2Cc2ccc(Cl)cc2)n(C)c1=O [H10]
[8]
  HillSlope, TRPC5: 0.3841
  IC50: 503 nM
[9]
  IC50: 2.57 nM

## Cn1c(=O)n(CCNCc2ccccc2)c(=O)c2c1nc(Oc1cccc(Cl)c1)n2Cc1ccc(Cl)cc1 [H03]
[10]
  inhibitory activity toward TRPC5 homomers (in words): restored TRPC5 homomer inhibition

## Cn1c(=O)n(CCN2CCCC2)c(=O)c2c1nc(Oc1cccc(Cl)c1)n2Cc1ccc(Cl)cc1 [H01]
[10]
  inhibitory activity toward TRPC5 homomers (in words): markedly reduced inhibitory activity
[11]
  inhibition of TRPC1/5 heteromers (in words): moderate inhibition

## CC(C)NCCn1c(=O)c2c(nc(Oc3cccc(Cl)c3)n2Cc2ccc(Cl)cc2)n(C)c1=O [H02]
[10]
  inhibitory activity toward TRPC5 homomers (in words): markedly reduced inhibitory activity
[11]
  inhibition of TRPC1/5 heteromers (in words): moderate inhibition

B1: C-terminal truncated (210 residues) mouse TRPC5 with triple Flag tag and MBP on its N terminus (domain or fragment, UniProt Q9QX29 1-765, looked up)
chain: MAQLYYKKVNYSPYRDRIPLQIVRAETELSAEEKAFLSAVEKGDYATVKQALQEAEIYYNVNINCMDPLGRSALLIAIENENLEIMELLLNHSVYVGDALLYAIRKEVVGAVELLLSYRKPSGEKQVPTLMMDTQFSEFTPDITPIMLAAHTNNYEIIKLLVQKRVTIPRPHQIRCNCVECVSSSEVDSLRHSRSRLNIYKALASPSLIALSSEDPILTAFRLGWELKELSKVENEFKAEYEELSQQCKLFAKDLLDQARSSRELEIILNHRDDHSEELDPQKYHDLAKLKVAIKYHQKEFVAQPNCQQLLATLWYDGFPGWRRKHWVVKLLTCMTIGFLFPMLSIAYLISPRSNLGLFIKKPFIKFICHTASYLTFLFMLLLASQHIVRTDLHVQGPPPTVVEWMILPWVLGFIWGEIKEMWDGGFTEYIHDWWNLMDFAMNSLYLATISLKIVAYVKYNGSRPREEWEMWHPTLIAEALFAISNILSSLRLISLFTANSHLGPLQISLGRMLLDILKFLFIYCLVLLAFANGLNQLYFYYETRAIDEPNNCKGIRCEKQNNAFSTLFETLQSLFWSVFGLLNLYVTNVKARHEFTEFVGATMFGTYNVISLVVLLNMLIAMMNNSYQLIADHADIEWKFARTKLWMSYFDEGGTLPPPFNIIPSPKSFLYLGNWFNNTFCPKRDPDGRRRRHNLRSFTERHADSLIQNQHYQEVIRNLVKRYVAAMIRNSKTNEGLTEENFKELKQDISSFRYEVLDLLGNRK
notes: TRPC5, mouse, lacking the 210 C-terminal residues; Three copies of this chain stand in the heterotetramer with one TRPC1 subunit; The results call the complex 'human TRPC1/5' although the TRPC5 construct is mouse; also called Cryo-TRPC5; truncated mTRPC5; not shown: triple Flag, N-terminal, kept
[12]
  binding result: binds
